According to patent US8216644B2, “Controlling wood staining and color during post-harvest processing” (Purdue Research Foundation, priority 2006, dated 2012):

How the values were obtained:
[1] = test system: freshly cut black walnut wood
[2] = test system: freshly cut sugar maple wood; test: test strip assay on freshly cut wood, sugar maple

## NC(N)=O.OO [hydrogen peroxide urea adduct]
[1]; 0.5 and 1.0% (w:w) concentration range, FIG. 4
  staining of wood: visible staining
[1]; test strips 0.5, 1.0, 5.0 and 10% (w:w), FIG. 2
  staining of wood (experimental spots): visible on top of the background staining
[2]; 10% (w:w), FIG. 1
  staining of wood at 10%: chemical breakdown of the staining due to bulk oxidation
[2]; image analysis of FIG. 3, plot profile, FIG. 5
  background gray scale values (bg), relative darkness: increase in wood darkening with increasing hydrogen peroxide urea adduct concentrations
[2]; test strips 0, 0.5, 1.0, 5.0 and 10% (w:w), FIG. 1
  concentration range in which the staining reaction appears saturated: 0.5-1.0%
[2]; test strips 0.05, 0.1, 0.5 and 1.0% (w:w), FIG. 3
  staining reaction over concentration range: shows a dose response curve
